One experiment deals with T1, MAP4K1 (HPK1) (Homo sapiens, UniProt Q92918).
T1 construct: purchased Invitrogen
Description: Inhibition of MAP4K1 biochemical enzymatic activity (EZReader 2 electrophoretic mobility shift assay). The following applies: HPK1 (Invitrogen), S6K2tide 1.5 μM, 120 min; ATP 26 μM or 1000 μM (not stated which). An outline of the steps: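 Mobility-shift assay: 0.1-15 nM enzyme, 1.5 μM fluorescent peptide, 20-1000 μM ATP (apparent Km or 1 mM) in HEPES pH 7.5, MgCl2, DTT, Brij 35; 60-180 min at 25° C, 1% DMSO. Ten-point 4-fold compound series in duplicate; EDTA-stopped, product/substrate peak ratio read.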
In general terms: A gel shift assay detects complexes by their altered migration in electrophoresis.

For another experiment, the system named is Primary T Cell. Description: T cell enhancement of cytokines: IL2 measurement (HTRF) in expanded CD3+ T cells stimulated with anti-CD3/anti-CD28. The experiment is classed as cell-based, human. The following applies: plate-bound anti-CD3 and soluble anti-CD28, 24 h, read-out: IL-2 Primary T Cell EC50. Here is the method:
T cells are isolated from whole blood of healthy donors by immunomagnetic negative selection following manufacture's protocol (StemCell Technologies, human T cell isolation kit). Purity of isolated cells is assessed by flow cytometry and yields 95-98% CD3^+ T cells. For expansion of T cells, 1×10^6 cells/well are plated in serum free cell expansion media (ThermoFisher) containing 30U of recombinant human IL2 (R&D) and stimulated with 25 ul of CD3/CD28 beads (Invitrogen) in 24 well plates for 3-4 days. T cells are then expanded in 175 cm flasks and maintained at a cell density of 1 to 2.5×10^6 cells/ml days by addition of ⅔ of fresh media every 2-3 days. After 10-14 days, cells are frozen in BamBanker freezing media (Thermo) and stored in liquid nitrogen.
For IL2 measurement, expanded CD3+ T cells are dispensed at 100K cells/well (cultured in X-VIVO 10 Serum-free media) and are stimulated with plate-bound anti-CD3 and soluble anti-CD28 in the presence of vehicle or compound of the disclosure at various concentrations for 24 h. As outlined in the manufacturer's protocol (Cisbio), 16 μL of conditioned media is transferred to a white 384-well low volume plate. Following a 24 h incubation with the anti-IL2 antibodies, the homogenous time resolved fluorescence (HTRF) is measured.

pEC50, pIC50: −log10 of the molar value. Where two headings read alike, the source gives them in different places.

T1 sequence (Q92918 whole entry): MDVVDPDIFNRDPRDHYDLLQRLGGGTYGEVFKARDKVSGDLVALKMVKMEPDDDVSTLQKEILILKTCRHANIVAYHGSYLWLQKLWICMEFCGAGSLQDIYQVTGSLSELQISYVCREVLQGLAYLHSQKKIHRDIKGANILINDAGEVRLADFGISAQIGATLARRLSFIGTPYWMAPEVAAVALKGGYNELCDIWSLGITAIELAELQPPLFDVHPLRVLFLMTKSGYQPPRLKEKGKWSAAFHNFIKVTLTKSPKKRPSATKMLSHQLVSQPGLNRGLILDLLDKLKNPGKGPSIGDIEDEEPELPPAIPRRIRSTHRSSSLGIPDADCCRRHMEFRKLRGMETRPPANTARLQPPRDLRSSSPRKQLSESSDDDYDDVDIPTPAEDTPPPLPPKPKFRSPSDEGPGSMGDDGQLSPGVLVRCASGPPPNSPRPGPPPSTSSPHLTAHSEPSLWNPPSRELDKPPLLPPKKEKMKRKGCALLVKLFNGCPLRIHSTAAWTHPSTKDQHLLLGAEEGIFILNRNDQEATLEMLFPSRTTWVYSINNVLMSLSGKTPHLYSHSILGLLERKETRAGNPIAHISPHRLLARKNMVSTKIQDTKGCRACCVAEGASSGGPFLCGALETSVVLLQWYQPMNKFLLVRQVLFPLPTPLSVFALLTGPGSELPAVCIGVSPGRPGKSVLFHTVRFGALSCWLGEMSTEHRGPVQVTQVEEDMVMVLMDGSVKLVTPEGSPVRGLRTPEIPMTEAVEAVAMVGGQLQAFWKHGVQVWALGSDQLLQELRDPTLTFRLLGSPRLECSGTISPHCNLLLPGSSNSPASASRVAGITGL

In the case of `CC[C@@H](N)c1ccc(OC2CN(C(=O)[C@@H]3C[C@@H]3F)C2)c2cnc(Nc3ccc4c(n3)[C@@H](C)C(C)(C)OC4=O)cc12` (single isomer, unassigned) [Compound 83, (R)-2-((5-((R)-1-Aminopropyl)-8-((1-((1S,2S)-2-fluorocyclopropane-1-carbonyl)azetidin-3-yl)oxy)isoquinolin-3-yl)amino)-7,7,8-trimethyl-7,8-dihydro-5H-pyrano[4,3-b]pyridin-5-one or (R)-2-((5-((S)-1-aminopropyl)-8-((1-((1S,2S)-2-fluorocyclopropane-1-carbonyl)azetidin-3-yl)oxy)isoquinolin-3-yl)amino)-7,7,8-trimethyl-7,8-dihydro-5H-pyrano[4,3-b]pyridin-5-one], the pIC50 at MAP4K1 (HPK1) is 9.96. Moreover, the negative-log EC50 (pEC50) in the experiment with Primary T Cell is 7.62.
As to `COC[C@@](C)(N)c1cnc(OC2CN(C(=O)OC)C2)c2cnc(Nc3ccc4c(n3)[C@@H](C)[C@H](C)OC4=O)cc12` [Compound 121], the pIC50 on MAP4K1 (HPK1) was 9.70. For the same molecule, in the experiment on Primary T Cell (Homo sapiens, T-cell, 24 h), the negative logarithm of the EC50 (pEC50) was 7.38.
Consider `COCC(C)(N)c1cnc(OC2CN(C(=O)C3CC3F)C2)c2cnc(Nc3ccc4c(n3)C(C)C(C)OC4=O)cc12` (single isomer, unassigned) [Compound 96], for which the pIC50 at MAP4K1 (HPK1) is 10.05. The pEC50 with Primary T Cell was 7.99.
As to `C[C@@H]1c2nc(Nc3cc4c(C(C)(C)N)cnc(O[C@@H]5CN(C(=O)C6CC6)[C@H]5C)c4cn3)ccc2C(=O)OC1(C)C` [Compound 65], the pIC50 on MAP4K1 (HPK1) was 9.70. The pEC50 in the experiment with Primary T Cell (Homo sapiens, T-cell, 24 h) was 7.76.
Taken in the same sequence, the figures for `C[C@@H]1c2nc(Nc3cc4c(C(C)(C)N)cnc(OCCCC(=O)N(C)C)c4cn3)ccc2C(=O)OC1(C)C` [Compound 39] were 9.85 and 7.85.
On the same counts, the results for `C[C@@H]1OC(=O)c2ccc(Nc3cc4c(C(C)(C)N)cnc(OC5CN(C(=O)[C@@H]6C[C@@H]6F)[C@H]5C)c4cn3)nc2[C@H]1C` (stereo partly shown) [Compound 85] are 10.00 and 7.75.
On the same counts, the results for `C[C@@H]1c2nc(Nc3cc4c(C(C)(C)N)cnc(OC5CN(C(=O)C6CC6)C5)c4cn3)ccc2C(=O)OC1(C)C` [Compound 8] are 9.80 and 7.49.
Regarding `C[C@@H]1c2nc(Nc3cc4c(C(C)(C)N)cnc(OC5CN(C(=O)[C@H]6C[C@H]6F)C5)c4cn3)ccc2C(=O)OC1(C)C` [Compound 13, (R)-2-((5-(2-aminopropan-2-yl)-8-((1-((1R,2R)-2-fluorocyclopropane-1-carbonyl)azetidin-3-yl)oxy)-2,7-naphthyridin-3-yl)amino)-7,7,8-trimethyl-7,8-dihydro-5H-pyrano[4,3-b]pyridin-5-one], on MAP4K1 (HPK1), the pIC50 was 9.77. Besides, the pEC50 in the experiment with Primary T Cell (Homo sapiens, T-cell, 24 h) is 7.63.
On the same counts, the results for `C[C@@H]1c2nc(Nc3cc4c(C(C)(C)N)cnc(OC5CN(C(=O)N(C)C)C5)c4cn3)ccc2C(=O)OC1(C)C` [Compound 57] are 9.89 and 7.68.
On the same counts, the results for `CCCC(C)(N)c1cnc(OC2CN(C(C)=O)C2)c2cnc(Nc3ccc4c(n3)[C@@H](C)C(C)(C)OC4=O)cc12` (single isomer, unassigned) [Compound 115] are 10.00 and 8.27.
Take `CC(C)(N)c1cnc(OC2CN(C(=O)C3CC3)C2)c2cnc(Nc3ccc4c(n3)C3(CC3)C(C)(C)OC4=O)cc12` [Compound 63]: the pIC50 at MAP4K1 (HPK1) is 9.72. In the experiment on Primary T Cell (Homo sapiens, T-cell, 24 h), the negative logarithm of the EC50 (pEC50) is 7.63.
Regarding `CCC(=O)N1CC(Oc2ncc([C@](C)(N)COC)c3cc(Nc4ccc5c(n4)[C@@H](C)C(C)(C)OC5=O)ncc23)C1` [Compound 123], on MAP4K1 (HPK1), the pIC50 is 10.00. The pEC50 in the experiment with Primary T Cell (Homo sapiens, T-cell, 24 h) was 7.22.
With `C[C@@H]1c2nc(Nc3cc4c(C(C)(C)N)cnc(O[C@H]5C[C@@H](C(=O)N6CC(F)(F)C6)C5)c4cn3)ccc2C(=O)OC1(C)C` [Compound 100], the negative-log IC50 (pIC50) on MAP4K1 (HPK1) is 9.96. Besides, the pEC50 in the experiment with Primary T Cell (Homo sapiens, T-cell, 24 h) was 7.66.
On the same counts, the results for `CC[C@@H](N)c1ccc(OC2CN(C(C)=O)C2)c2cnc(Nc3ccc4c(n3)[C@@H](C)C(C)(C)OC4=O)cc12` (stereo in doubt) [Compound 20] are 9.59 and 7.00.

The pIC50 is −log10 of the IC50, conventionally taken in molar units. As usually defined, the pEC50 is the negative decadic logarithm of the EC50, by convention in mol/L.
